Laboratory results taken from patent US6743363B2, “Method of bacteriostasis or disinfection for permselective membrane” (Toray Industries, Inc., priority 1998, dated 2004).
Like-named read-outs stand apart in the source and are kept apart here.

Columns and labels:
E. coli = assay: Survival rate of cells in 3.5% artificial seawater: E. coli; assay type: cell-based, Escherichia coli
Experimental: (§1) For comparison, 500 ppm of sodium bisulfite was added in place of sulfuric acid, and the data obtained are also shown in Table 1.

[1] = test system: suspension of a solid deposit on a reverse osmosis membrane having been used in seawater desalination; assay: Survival rate of cells in 3.5% artificial seawater: suspension of deposit on membrane; assay type: cell-based
Experimental: as §1

[2] = test system: un-identified bacteria as separated from the solid deposit suspension; assay: Survival rate of cells in 3.5% artificial seawater: cells from deposit on membrane; assay type: cell-based
Experimental: as §1

marine bacteria = assay: Colonies formed on agar medium for marine bacteria from treated seawater mixture; assay type: cell-based; details: 200 ppm of sulfuric acid, pH 2.8, for 2 hours at 20° C.; 0.1 ml plated on agar pH 7; untreated pH 8.5 gave 200
Experimental: 1% of seawater was added to commercially-available, 3.5% artificial seawater having been subjected to pressure disinfection (at 120° C. for 15 minutes), and the pH of the resulting seawater mixture was measured to be 8.5. After having been kept at 20° C. for 2 hours, 0.1 ml of the seawater mixture was applied onto an agar medium for marine bacteria, of which the pH value had been controlled to be 7, and then kept warmed at 20° C.
The pH of the resulting seawater mixture was 2.8. After having been kept at 20° C. for 2 hours, 0.1 ml of the seawater mixture was applied onto an agar medium for marine bacteria, of which the pH value had been controlled to be 7.

[3] = test system: living cells in the concentrate; details: Example 1: sulfuric acid pH 3.5 to 4, 30 min/day, running days 1 to 30
Excerpt: The invention is described concretely with reference to the following Examples, which, however, are not intended to restrict the scope of the invention. In these Examples, the disinfecting effect is represented by the number of living microorganisms, the pressure loss in membrane modules and the consumption of sodium bisulfite (SBS).
Two membrane separation units each having a reverse osmosis membrane of polyamide were driven for seawater desalination through reverse osmosis filtration to produce fresh water. […] In that condition, the two units were continuously driven for 1 month. […] While the units were driven under the condition, the number of the living cells in the concentrate having passed through each unit was counted.

acid-resistant bacteria = test system: acid-resistant bacteria
Experimental: Two membrane separation systems (systems A and B) each comprising a pre-treatment unit and a membrane separation unit having a reverse osmosis membrane module of polyamide were driven for seawater desalination through reverse osmosis filtration to produce fresh water. In these, a culture of the acid-resistant bacteria having been obtained in Reference Example 3 was added to the pre-treated seawater. […] In those conditions, the two systems were continuously driven for 30 days. […] While the systems were driven under the defined conditions, the number of living cells in the concentrate was counted.

[4] = test system: Escherichia coli K12 IFO 3301; details: physiological saline 0.9%
[5] = test system: Acid-resistant Bacteria 1
[6] = test system: Acid-resistant Bacteria 2
[7] = test system: Acid-resistant Bacteria 3
[8] = 500 ppm, 2.5 hr, pH 5.9, 20° C.
[9] = 100 ppm, 2.5 hr, pH 5.1, 20° C.
[10] = 120 ppm, 0.5 hr, pH 4.0, 20° C.
[11] = 120 ppm, 2.5 hr, pH 4.0, 20° C.
[12] = 150 ppm, 0.5 hr, pH 3.3, 20° C.
[13] = 200 ppm, 0.5 hr, pH 2.9, 20° C.
[14] = 300 ppm, 0.5 hr, pH 2.5, 20° C.
[15] = 250 ppm, 0.5 hr, pH 2.6, 20° C.
[16] = 250 ppm, 2.5 hr, pH 2.6, 20° C.
[17] = 300 ppm, 0.5 hr, pH 2.6, 20° C.

SMILES: O=S([O-])O.[Na+] [Sodium Bisulfite, sodium bisulfite, reference compound]
- Survival Rate (%) E. coli (E. coli; [8]): 98%
- Survival Rate (%) Suspension of Deposit on Membrane [1, 8]: 90%
- Survival Rate (%) Cells from Deposit on Membrane [2, 8]: 86%

SMILES: O=S(=O)(O)O [Sulfuric Acid, sulfuric acid]
- Survival Rate (%) E. coli (E. coli; [9]): 107%
- Survival Rate (%) E. coli (E. coli; [10]): 105%
- Survival Rate (%) E. coli (E. coli; [11]): 93%
- Survival Rate (%) E. coli (E. coli; [12]): <1%
- Survival Rate (%) E. coli (E. coli; [13]): <1%
- Survival Rate (%) E. coli (E. coli; [14]): <1%
- Survival Rate (%) Suspension of Deposit on Membrane [1, 9]: 60%
- Survival Rate (%) Suspension of Deposit on Membrane [1, 10]: 37%
- Survival Rate (%) Suspension of Deposit on Membrane [1, 11]: 15%
- Survival Rate (%) Suspension of Deposit on Membrane [1, 12]: <1%
- Survival Rate (%) Suspension of Deposit on Membrane [1, 13]: <1%
- Survival Rate (%) Suspension of Deposit on Membrane [1, 14]: <1%
- Survival Rate (%) Cells from Deposit on Membrane [2, 9]: 81%
- Survival Rate (%) Cells from Deposit on Membrane [2, 12]: <1%
- Survival Rate (%) Cells from Deposit on Membrane [2, 13]: <1%
- Survival Rate (%) Cells from Deposit on Membrane [2, 14]: <1%
- Number of Colonies Formed (marine bacteria): 3
- Number of Living Cells in the concentrate, compared with the unit not subjected to the sulfuric acid treatment [3]:  1/100 or less
- Number of Living Cells in the concentrate, compared with the unit not subjected to the sulfuric acid treatment ([3]; listed as sulfuric acid): 1/100
- Ratio of Living Microbes in Concentrate (acid-resistant bacteria; pH 2.6, 30 minutes a day): <1
- Ratio of Living Microbes in Concentrate (acid-resistant bacteria; pH 3.5 to 4.0, 30 minutes a day): 100
- Ratio of Living Microbes in Concentrate (acid-resistant bacteria; pH 3.5 to 4.0, 30 minutes a day, plus pH 2.6, 30 minutes a day (once at intervals of 5 days)): <1
- survival rate of the cells ([4]; 10 ppm of sulfuric acid, pH 4.7, 20° C., 2.5 hours): ≥ 90%
- survival rate of the cells ([4]; 50 ppm of sulfuric acid, pH 3.2, 20° C., 0.5 hours): 90%
- survival rate of the cells ([4]; 50 ppm of sulfuric acid, pH 3.2, 20° C., 1 hour): 20%
- survival rate of the cells ([4]; 50 ppm of sulfuric acid, pH 3.2, 20° C., 2.5 hours): ≤ 1%
- survival rate of the cells ([4]; 100 ppm of sulfuric acid, 20° C., 0.5 hours): ≤ 1%
- Survival Rate (%) Acid-resistant Bacteria 1 ([5]; 200 ppm, 1 hr, pH 2.8, 20° C.): 50%
- Survival Rate (%) Acid-resistant Bacteria 1 [5, 15]: 17%
- Survival Rate (%) Acid-resistant Bacteria 1 ([5]; 250 ppm, 1 hr, pH 2.6, 20° C.): <1%
- Survival Rate (%) Acid-resistant Bacteria 1 [5, 16]: <1%
- Survival Rate (%) Acid-resistant Bacteria 1 [5, 17]: 8%
- Survival Rate (%) Acid-resistant Bacteria 1 ([5]; 300 ppm, 1 hr, pH 2.4, 20° C.): <1%
- Survival Rate (%) Acid-resistant Bacteria 2 ([6]; 200 ppm, 1 hr, pH 2.8, 20° C.): 22%
- Survival Rate (%) Acid-resistant Bacteria 2 [6, 15]: 33%
- Survival Rate (%) Acid-resistant Bacteria 2 ([6]; 250 ppm, 1 hr, pH 2.6, 20° C.): 2%
- Survival Rate (%) Acid-resistant Bacteria 2 [6, 16]: <1%
- Survival Rate (%) Acid-resistant Bacteria 2 [6, 17]: 1%
- Survival Rate (%) Acid-resistant Bacteria 2 ([6]; 300 ppm, 1 hr, pH 2.4, 20° C.): <1%
- Survival Rate (%) Acid-resistant Bacteria 3 ([7]; 200 ppm, 1 hr, pH 2.8, 20° C.): <1%
- Survival Rate (%) Acid-resistant Bacteria 3 [7, 15]: 1%
- Survival Rate (%) Acid-resistant Bacteria 3 ([7]; 250 ppm, 1 hr, pH 2.6, 20° C.): <1%
- Survival Rate (%) Acid-resistant Bacteria 3 [7, 16]: <1%
- Survival Rate (%) Acid-resistant Bacteria 3 [7, 17]: <1%
- Survival Rate (%) Acid-resistant Bacteria 3 ([7]; 300 ppm, 1 hr, pH 2.4, 20° C.): <1%
